Source: ChEMBL document CHEMBL5214933, “Discovery of Selenium-Containing STING Agonists as Orally Available Antitumor Agents” (J Med Chem, 2022)
Converted amounts (≈) assume the structure as drawn. Blank lines part the entries; values can stand above or below the compound they belong to. The source made the active and inactive calls. No cut-off for these calls is given here.

Assays:
[1] = system: Stimulator of interferon genes protein (Homo sapiens), Q86WV6 [UNDEFINED MUTATION]; test: Binding affinity to recombinant human STING H232 variant expressed in Escherichia coli BL21 (DE3) assessed as thermal stabilization by measuring change in melting temperature at 2 mM incubated for 30 mins by SYPRO orange dye based differential scanning fluorimetry assay
Chain of Stimulator of interferon genes protein (Homo sapiens), Q86WV6 [UNDEFINED MUTATION] (Q86WV6 whole entry, looked up, stated change not applied): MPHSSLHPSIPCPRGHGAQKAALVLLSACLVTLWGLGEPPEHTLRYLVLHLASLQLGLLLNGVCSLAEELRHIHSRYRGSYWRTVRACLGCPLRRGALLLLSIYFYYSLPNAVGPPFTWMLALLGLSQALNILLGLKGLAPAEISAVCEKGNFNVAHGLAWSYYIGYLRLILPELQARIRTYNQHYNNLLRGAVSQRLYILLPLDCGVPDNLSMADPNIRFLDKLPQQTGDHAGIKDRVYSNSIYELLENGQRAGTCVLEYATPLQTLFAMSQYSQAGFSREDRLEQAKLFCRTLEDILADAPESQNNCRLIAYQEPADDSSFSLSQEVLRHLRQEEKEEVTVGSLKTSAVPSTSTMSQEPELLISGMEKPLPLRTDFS

[2] = biological target: T1, Stimulator of interferon genes protein (Homo sapiens, UniProt Q86WV6); test: Agonist activity at STING in human THP-1 cells harboring IRF-inducible luciferase reporter construct assessed as fold change in ISG signalling at 20 uM incubated for 12 hrs by Quanti-luc reagent based assay relative to control; format: cell-based; conditions: filed as agonist
T1 sequence (Q86WV6 whole entry): as the sequence (Q86WV6 whole entry, looked up, stated change not applied) above

[3] = biological target: T2, Stimulator of interferon genes protein (Mus musculus) (UniProt Q3TBT3); test: Agonist activity at STING in mouse RAW264.7 cells harboring IRF-inducible luciferase reporter construct assessed as increase in ISG signalling at 20 uM incubated for 12 hrs by Quanti-luc reagent based assay; format: cell-based; conditions: filed as agonist
T2 sequence (whole entry): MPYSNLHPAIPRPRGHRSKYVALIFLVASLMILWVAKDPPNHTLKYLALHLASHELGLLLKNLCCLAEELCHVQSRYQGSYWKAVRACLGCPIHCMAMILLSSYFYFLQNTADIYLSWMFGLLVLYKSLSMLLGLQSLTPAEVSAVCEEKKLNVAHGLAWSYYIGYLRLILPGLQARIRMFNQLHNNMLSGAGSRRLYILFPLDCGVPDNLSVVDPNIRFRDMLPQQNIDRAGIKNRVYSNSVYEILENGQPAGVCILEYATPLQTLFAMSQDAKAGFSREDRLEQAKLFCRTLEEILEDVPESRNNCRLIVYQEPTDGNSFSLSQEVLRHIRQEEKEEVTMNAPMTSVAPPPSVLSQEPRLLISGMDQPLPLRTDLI

[4] = biological target: T1, Stimulator of interferon genes protein; test: Agonist activity at STING in cGAS knockout human THP-1 cells harboring IRF-inducible luciferase reporter construct assessed as increase in ISG signalling at 20 uM incubated for 12 hrs by Quanti-luc reagent based assay; format: cell-based; conditions: filed as agonist
[5] = biological target: T1, Stimulator of interferon genes protein; test: Agonist activity at STING in human THP-1 cells harboring IRF-inducible luciferase reporter construct assessed as increase in ISG signalling incubated for 12 hrs by Quanti-luc reagent based assay; format: cell-based
[6] = Aqueous solubility of compound at 3 mg incubated for 24 hrs under shaking condition by RP-HPLC analysis; format: physicochemical; conditions: water
[7] = Solubility of compound in PBS buffer at pH 7.4 at 3 mg incubated for 24 hrs under shaking condition by RP-HPLC analysis; format: physicochemical
4T1 [8] = test: Antitumor activity against mouse 4T1 cells implanted in naive BALB/c mouse assessed as increase in Ki67-positive CD8 T cells in tumor at 80 mg/kg, po administered once every 5 days by FACS analysis (reference value: 14%); format: functional; conditions: time 5 day
[9] = Volume of distribution at steady state in Sprague-Dawley rat at 5 mg/kg, iv measured for 1440 mins by LC-MS/MS analysis; format: ADME, organism-based; conditions: in vivo, read-out: Vdss
[10] = Stability in human plasma assessed as parent compound remaining at 1 uM incubated for 24 hrs in presence of NADPH by LC-MS/MS analysis; format: ADME, cell-free; conditions: read-out: Stability
[11] = Half life in Sprague-Dawley rat at 50 mg/kg, po measured for 1440 mins by LC-MS/MS analysis; format: ADME, organism-based; conditions: in vivo
[12] = Stability in rat liver microsomes assessed as parent compound remaining at 1 uM incubated for 2 hrs in presence of NADPH by LC-MS/MS analysis; format: ADME, Microsome; conditions: read-out: Stability
[13] = Permeability of the compound in PBS buffer incubated for 5 hrs by PAMPA-based LC-MS/MS analysis; format: ADME; conditions: read-out: permeability
[14] = system: Stimulator of interferon genes protein (Homo sapiens), Q86WV6 [UNDEFINED MUTATION]; test: Binding affinity to recombinant human STING AQ variant expressed in Escherichia coli BL21 (DE3) assessed as thermal stabilization by measuring change in melting temperature at 0.1 mM incubated for 30 mins by SYPRO orange dye based differential scanning fluorimetry assay
[15] = Clearance in Sprague-Dawley rat at 5 mg/kg, iv measured for 1440 mins by LC-MS/MS analysis; format: ADME, organism-based; conditions: in vivo
[16] = Lipophilicity, logP of compound by RP-HPLC analysis; format: physicochemical
[17] = Cmax in Sprague-Dawley rat at 50 mg/kg, po measured for 1440 mins by LC-MS/MS analysis; format: ADME, organism-based; design: time 1440 min, dose 50 mg/kg, route po; conditions: in vivo
[18] = AUC (0 to infinity) in Sprague-Dawley rat at 50 mg/kg, po measured for 1440 mins by LC-MS/MS analysis; format: ADME, organism-based; design: time 1440 min, dose 50 mg/kg, route po; conditions: in vivo
CYP3A4 = CYP3A4 (Homo sapiens, UniProt P08684); test: Inhibition of recombinant CYP3A4 (unknown origin) using midazolam as substrate assessed as reduction in substrate hydroxylation at 10 uM incubated for 5 mins in presence of NADPH by LC-MS/MS analysis relative to control; format: ADME; conditions: recombinant CYP3A4, probe midazolam
Chain of CYP3A4 (P08684 whole entry): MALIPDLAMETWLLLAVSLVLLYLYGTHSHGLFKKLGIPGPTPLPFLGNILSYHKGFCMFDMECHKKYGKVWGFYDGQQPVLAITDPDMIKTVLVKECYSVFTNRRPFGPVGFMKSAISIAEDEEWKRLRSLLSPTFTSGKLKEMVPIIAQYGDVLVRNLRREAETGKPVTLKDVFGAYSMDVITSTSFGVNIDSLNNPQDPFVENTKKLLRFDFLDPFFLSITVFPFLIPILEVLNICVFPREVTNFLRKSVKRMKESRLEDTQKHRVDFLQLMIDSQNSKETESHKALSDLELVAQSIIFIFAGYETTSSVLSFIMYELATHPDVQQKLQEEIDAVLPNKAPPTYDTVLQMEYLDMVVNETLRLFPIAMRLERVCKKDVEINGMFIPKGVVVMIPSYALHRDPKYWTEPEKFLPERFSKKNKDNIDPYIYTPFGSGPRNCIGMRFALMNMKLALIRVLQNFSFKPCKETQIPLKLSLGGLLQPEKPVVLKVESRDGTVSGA

[19] = Protein binding in plasma (unknown origin) assessed as unbound fraction at 2 uM incubated for 4 hrs under shaking condition by rapid equilibrium dialysis method; format: ADME, cell-free
[20] = Clearance in Sprague-Dawley rat at 50 mg/kg, po measured for 1440 mins by LC-MS/MS analysis; format: ADME, organism-based; conditions: in vivo
[21] = system: Stimulator of interferon genes protein (Homo sapiens), Q86WV6 [UNDEFINED MUTATION]; test: Binding affinity to recombinant human STING R232 variant expressed in Escherichia coli BL21 (DE3) assessed as thermal stabilization by measuring change in melting temperature at 0.1 mM incubated for 30 mins by SYPRO orange dye based differential scanning fluorimetry assay
4T1 [22] = test: Antitumor activity against mouse 4T1 cells implanted in naive BALB/c mouse assessed as increase in Ki67-positive CD4 T cells in tumor at 80 mg/kg, po administered once every 5 days by FACS analysis (reference value: 4.4%); format: functional; conditions: time 5 day
[23] = Volume of distribution at steady state in Sprague-Dawley rat at 50 mg/kg, po measured for 1440 mins by LC-MS/MS analysis; format: ADME, organism-based; conditions: in vivo, 24 h
hERG = hERG (Homo sapiens, UniProt Q12809); test: Inhibition of hERG expressed in HEK293 cells at 10 uM incubated for 5 mins by QPatch automated patch-clamp technique relative to control; format: toxicity, cell-based; conditions: HEK293 cells that express hERG
Chain of hERG (Q12809 whole entry): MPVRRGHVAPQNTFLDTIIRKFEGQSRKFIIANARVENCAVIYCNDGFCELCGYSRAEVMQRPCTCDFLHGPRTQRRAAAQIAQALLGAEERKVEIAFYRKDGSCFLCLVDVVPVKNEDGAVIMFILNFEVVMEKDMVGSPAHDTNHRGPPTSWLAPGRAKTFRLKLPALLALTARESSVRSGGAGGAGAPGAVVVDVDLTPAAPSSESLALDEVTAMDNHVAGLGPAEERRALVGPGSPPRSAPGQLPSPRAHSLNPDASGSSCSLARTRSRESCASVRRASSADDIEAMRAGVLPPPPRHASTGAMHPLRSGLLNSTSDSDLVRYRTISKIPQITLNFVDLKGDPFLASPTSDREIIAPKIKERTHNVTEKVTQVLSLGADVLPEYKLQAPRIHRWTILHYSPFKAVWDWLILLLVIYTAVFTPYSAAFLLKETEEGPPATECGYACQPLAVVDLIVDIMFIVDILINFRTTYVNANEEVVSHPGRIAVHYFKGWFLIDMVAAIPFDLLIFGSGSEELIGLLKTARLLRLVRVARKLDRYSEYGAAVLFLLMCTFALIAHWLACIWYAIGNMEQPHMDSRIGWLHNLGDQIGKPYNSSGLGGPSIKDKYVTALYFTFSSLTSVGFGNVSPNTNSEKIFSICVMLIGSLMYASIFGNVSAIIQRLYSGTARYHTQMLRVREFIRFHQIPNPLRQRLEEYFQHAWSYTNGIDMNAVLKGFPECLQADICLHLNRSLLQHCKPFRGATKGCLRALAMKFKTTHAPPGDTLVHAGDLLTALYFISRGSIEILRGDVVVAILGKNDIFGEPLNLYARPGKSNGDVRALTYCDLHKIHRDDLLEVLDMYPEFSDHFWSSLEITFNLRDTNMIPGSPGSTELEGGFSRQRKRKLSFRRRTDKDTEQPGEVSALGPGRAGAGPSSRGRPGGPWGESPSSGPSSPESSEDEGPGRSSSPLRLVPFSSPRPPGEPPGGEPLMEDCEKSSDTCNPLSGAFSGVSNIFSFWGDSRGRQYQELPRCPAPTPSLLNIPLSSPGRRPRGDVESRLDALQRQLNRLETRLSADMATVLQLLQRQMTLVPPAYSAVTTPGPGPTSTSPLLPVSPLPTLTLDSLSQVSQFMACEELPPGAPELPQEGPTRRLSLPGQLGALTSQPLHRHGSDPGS

[24] = AUC (0 to infinity) in Sprague-Dawley rat at 5 mg/kg, iv measured for 1440 mins by LC-MS/MS analysis; format: ADME, organism-based; design: dose 5 mg/kg, time 1440 min, route iv; conditions: in vivo
[25] = Oral bioavailability in Sprague-Dawley rat at 50 mg/kg measured for 1440 mins by LC-MS/MS analysis; format: ADME, organism-based; conditions: in vivo
[26] = Half life in Sprague-Dawley rat at 5 mg/kg, iv measured for 1440 mins by LC-MS/MS analysis; format: ADME, organism-based; conditions: in vivo

SMILES: COc1ccc2[se]c(C(=O)CC(C)C(=O)O)cc2c1 (racemic)
ΔTm [1]: -0.3 °C

SMILES: COc1cc2cc(C(=O)CC(C)C(N)=O)[se]c2cc1OC (racemic)
ΔTm [1]: -0.8 °C

SMILES: COc1ccc2cc(C(=O)CC(C)C(=O)O)[se]c2c1 (racemic)
ΔTm [1]: -0.1 °C

SMILES: CCC(CC(=O)c1cc2cc(OC)c(OC)cc2[se]1)C(=O)O (racemic)
fold change (FC) [2]: 27
ΔTm [1]: 4.5 °C

SMILES: COCC(CC(=O)c1cc2cc(OC)c(OC)cc2[se]1)C(=O)O (racemic)
fold change (FC) [2]: 7
ΔTm [1]: 0.9 °C

SMILES: COc1cc2cc(C(=O)CCC(=O)O)[se]c2cc1OC
fold change (FC) [2]: 2
ΔTm [1]: -1.1 °C

SMILES: CCC(=O)C(C)CC(=O)c1cc2cc(OC)c(OC)cc2[se]1 (stereo not given)
fold change (FC) [2]: 15
ΔTm [1]: -0.2 °C

SMILES: COc1cc2cc(C(=O)CC(C(=O)O)C(C)C)[se]c2cc1OC (racemic)
fold change (FC) [2]: 10
ΔTm [1]: -1.9 °C

fold change (FC) [2]: 18
ΔTm [1]: 4.7 °C
SMILES: CCC(CC(=O)c1cc2cc(OC)c(OC)cc2s1)C(=O)O (racemic)

SMILES: COc1cc2cc(C(=O)C3CCC3C(=O)O)[se]c2cc1OC (racemic)
fold change (FC) [2]: 24
ΔTm [1]: 9.1 °C

SMILES: COc1cc2cc(C(=O)C3CC3C(=O)O)[se]c2cc1OC (racemic)
fold change (FC) [2]: 7
ΔTm [1]: 6.2 °C

SMILES: COc1cc2cc(C(=O)CC(C)(C)C(=O)O)[se]c2cc1OC
fold change (FC) [2]: 5
ΔTm [1]: -1.5 °C

SMILES: CC(CC(=O)c1cc2cc3c(cc2[se]1)OCO3)C(=O)O (racemic)
ΔTm [1]: -0.5 °C

ΔTm [1]: -0.1 °C
SMILES: CCC(CC(=O)c1cc2cc(OC)c(OC)cc2o1)C(=O)O (racemic)

SMILES: CCCC(CC(=O)c1cc2cc(OC)c(OC)cc2[se]1)C(=O)O (racemic)
fold change (FC) [2]: 14
ΔTm [1]: -1.2 °C

SMILES: COc1cc2cc(C(=O)CC(C)C(=O)O)[se]c2cc1OC (racemic)
Activity [3]: Active
Activity [4]: Active
fold change (FC) [2]: 15
EC50 [5]: 21.3 µM
ΔTm [1]: 2.7 °C

solubility thermodynamic at 24 h [6]: 6 µg/mL (≈ 20.4 µM)
solubility thermodynamic at 24 h [7]: 300 µg/mL (≈ 1020 µM)
Vd [9]: 1.28 L/kg
remaining at 24 h, 1 µM [10]: 100%
half-life [11]: 1.65 h
remaining at 2 h, 1 µM [12]: 87%
Papp at 5 h [13]: 1.7 ×10⁻⁶ cm/s
ΔTm [14]: 23.3 °C
clearance [15]: 8.5 mL/min/kg
logP [16]: 1.5
Cmax [17]: 23300 ng/mL
fold change (FC) [2]: 32
AUC(0-inf) [18]: 56800 ng·h/mL
inhibition at 5 min, 10 µM (CYP3A4): 7.59%
Fu [19]: 0.19%
CL/F [20]: 15.2 mL/min/kg
ΔTm [21]: 9.1 °C
Vdss [23]: 2.18 L/kg
AUC(0-inf) [24]: 9800 ng·h/mL
bioavailability [25]: 58%
half-life [26]: 1.71 h
ΔTm [1]: 3.9 °C
SMILES: COc1cc2cc(C(=O)CCC(=O)O)sc2cc1OC
Activity (4T1 [8]): 7.7%
Activity (4T1 [22]): 5.5%
inhibition at 5 min, 10 µM (hERG): 0.86%
